Reference: publication PMC3108484 (Frontiers in Pharmacology, 2011)

What was measured:
Human ETB = Human ETB (Homo sapiens, UniProt P24530); experiment: Radioligand binding: Human ETB
Human 5-HT7 = Human 5-HT7 (Homo sapiens, UniProt P34969); experiment: Radioligand binding: Human 5-HT7
Rat GABA (non-selective) = experiment: Radioligand binding: Rat GABA; settings: [3H]-GABA 10 nM
Human M1 = Human M1 (Homo sapiens, UniProt P11229); experiment: Radioligand binding: Human M1
Human COX1 = Human COX1 (Homo sapiens, UniProt P23219); experiment: Enzyme inhibition: Human COX1
Guinea pig H1 = Guinea pig H1 (Cavia porcellus, UniProt P31389); experiment: Radioligand binding: Guinea pig H1
Human 5-HT2A = Human 5-HT2A (Homo sapiens, UniProt P28223); experiment: Radioligand binding: Human 5-HT2A
Rat dopamine transporter = Rat dopamine transporter (Rattus norvegicus, UniProt P23977); experiment: Radioligand binding: Rat dopamine transporter
Human NK2 = Human NK2 (Homo sapiens, UniProt P21452); experiment: Radioligand binding: Human NK2
Human Y1 = Human Y1 (Homo sapiens, UniProt P25929); experiment: Radioligand binding: Human Y1
Rat CRF1 = Rat CRF1 (Rattus norvegicus, UniProt P35353); experiment: Radioligand binding: Rat CRF1
[1] = molecular target: Rat α7 nAChR (α-BGTX-sensitive) (Rattus norvegicus, UniProt Q05941); experiment: biochemical; format: binding
Human 5-HT5a = Human 5-HT5a (Homo sapiens, UniProt P47898); experiment: Radioligand binding: Human 5-HT5a
Human 5-HT transporter = Human 5-HT transporter (Homo sapiens, UniProt P31645); experiment: Radioligand binding: Human 5-HT transporter
Bovine 5-HT1D = Bovine 5-HT1D (Bos taurus, UniProt F1MMU1); experiment: Radioligand binding: Bovine 5-HT1D
Human PDE4 = experiment: Enzyme inhibition: Human PDE4; settings: [3H]-cAMP + cAMP 1 μM, TD-8954 1 μM
Human V2 = Human V2 (Homo sapiens, UniProt P30518); experiment: Radioligand binding: Human V2
Human M5 = Human M5 (Homo sapiens, UniProt P08912); experiment: Radioligand binding: Human M5
Rat NMDA = Rat NMDA (Rattus norvegicus, UniProt Q00959); experiment: Radioligand binding: Rat NMDA; settings: read-out: % Inhibition of specific binding (1 μM)
Guinea pig H2 = Guinea pig H2 (Cavia porcellus, UniProt P47747); experiment: Radioligand binding: Guinea pig H2
[2] = molecular target: Rat Ca2+ channel (L, DHP site); experiment: Radioligand binding: Rat Ca2+ channel; settings: [3H]-(+)PN 200-110 0.04 nM
Guinea pig κ kappa = Guinea pig κ kappa (Cavia porcellus, UniProt P41144); experiment: Radioligand binding: Guinea pig κ opiate receptor
Human CB1 = Human CB1 (Homo sapiens, UniProt P21554); experiment: Radioligand binding: Human CB1
Human β2 = Human β2 (Homo sapiens, UniProt P07550); experiment: Radioligand binding: Human β2
[3] = both, human, in vivo, 0.5 mg
human Nav1.5 = human Nav1.5 (Homo sapiens, UniProt Q14524); experiment: Whole cell voltage-clamp, cardiac sodium current; settings: 3 μM for 3 min, n = 3 cells
Human CGRP = Human CGRP (Homo sapiens, UniProt O60894+Q16602); experiment: Radioligand binding: Human CGRP
Human D1 = Human D1 (Homo sapiens, UniProt P21728); experiment: Radioligand binding: Human D1
Human D2S = Human D2S (Homo sapiens, UniProt P14416); experiment: Radioligand binding: Human D2S
Rat 5-HT1B = Rat 5-HT1B (Rattus norvegicus, UniProt P28564); experiment: Radioligand binding: Rat 5-HT1B
Human δ2 = Human δ2 (Homo sapiens, UniProt P41143); experiment: Radioligand binding: Human δ2 opiate receptor
Rat Ca2+ channel (N) = Rat Ca2+ channel (N) (Rattus norvegicus, UniProt Q02294); experiment: biochemical; format: binding
Rat adenylyl cyclase = experiment: Enzyme inhibition: Rat adenylyl cyclase; settings: ATP 500 μM, TD-8954 1 μM
Human μ = Human μ (Homo sapiens, UniProt P35372); experiment: Radioligand binding: Human μ opiate receptor
[4] = read-out: % Inhibition of specific binding (1 μM)

Guinea pig κ kappa, sequence (P41144 whole entry): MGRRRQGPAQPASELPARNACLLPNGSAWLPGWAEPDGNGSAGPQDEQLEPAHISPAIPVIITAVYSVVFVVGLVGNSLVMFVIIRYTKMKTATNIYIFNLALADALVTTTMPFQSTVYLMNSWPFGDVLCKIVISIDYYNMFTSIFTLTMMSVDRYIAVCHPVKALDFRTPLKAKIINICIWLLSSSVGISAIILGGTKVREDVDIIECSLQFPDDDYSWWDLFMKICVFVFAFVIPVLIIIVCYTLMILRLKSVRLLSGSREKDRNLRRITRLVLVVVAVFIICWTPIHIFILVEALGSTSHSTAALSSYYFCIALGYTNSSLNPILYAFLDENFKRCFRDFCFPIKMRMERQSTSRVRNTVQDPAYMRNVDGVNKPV
Human COX1, sequence (P23219 24-599): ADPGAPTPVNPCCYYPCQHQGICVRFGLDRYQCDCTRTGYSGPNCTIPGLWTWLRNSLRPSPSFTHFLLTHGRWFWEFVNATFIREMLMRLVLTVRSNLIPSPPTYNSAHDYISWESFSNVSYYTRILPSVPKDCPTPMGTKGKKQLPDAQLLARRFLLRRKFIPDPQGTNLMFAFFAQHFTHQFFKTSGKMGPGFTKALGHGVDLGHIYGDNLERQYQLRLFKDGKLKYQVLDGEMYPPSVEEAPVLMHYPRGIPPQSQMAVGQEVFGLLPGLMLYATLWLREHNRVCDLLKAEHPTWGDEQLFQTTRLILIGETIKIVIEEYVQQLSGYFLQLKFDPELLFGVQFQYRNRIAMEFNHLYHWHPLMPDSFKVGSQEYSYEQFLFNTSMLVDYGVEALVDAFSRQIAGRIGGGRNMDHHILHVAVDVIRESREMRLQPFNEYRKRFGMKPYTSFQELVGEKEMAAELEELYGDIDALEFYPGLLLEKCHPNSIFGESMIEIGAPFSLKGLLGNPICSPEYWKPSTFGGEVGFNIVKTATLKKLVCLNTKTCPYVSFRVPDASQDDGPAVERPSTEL
Rat dopamine transporter, sequence (P23977 whole entry): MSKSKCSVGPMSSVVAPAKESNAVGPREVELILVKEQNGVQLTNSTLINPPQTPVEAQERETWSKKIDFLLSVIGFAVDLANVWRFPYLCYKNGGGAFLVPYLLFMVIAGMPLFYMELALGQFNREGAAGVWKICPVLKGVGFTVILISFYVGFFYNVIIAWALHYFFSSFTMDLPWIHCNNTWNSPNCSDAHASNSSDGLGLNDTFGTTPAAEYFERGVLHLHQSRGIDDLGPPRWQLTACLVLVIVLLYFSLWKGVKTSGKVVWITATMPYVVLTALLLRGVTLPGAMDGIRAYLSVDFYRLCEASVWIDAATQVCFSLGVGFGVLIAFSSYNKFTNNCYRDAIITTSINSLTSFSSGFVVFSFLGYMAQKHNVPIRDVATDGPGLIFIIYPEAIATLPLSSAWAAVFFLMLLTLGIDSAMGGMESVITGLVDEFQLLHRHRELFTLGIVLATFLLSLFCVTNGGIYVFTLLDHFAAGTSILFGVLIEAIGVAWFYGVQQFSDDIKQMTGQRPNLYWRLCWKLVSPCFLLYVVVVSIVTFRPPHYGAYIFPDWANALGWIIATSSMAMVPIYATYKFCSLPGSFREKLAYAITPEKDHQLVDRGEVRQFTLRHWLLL
Human D2S, sequence (P14416 1-414 isoform P14416-2): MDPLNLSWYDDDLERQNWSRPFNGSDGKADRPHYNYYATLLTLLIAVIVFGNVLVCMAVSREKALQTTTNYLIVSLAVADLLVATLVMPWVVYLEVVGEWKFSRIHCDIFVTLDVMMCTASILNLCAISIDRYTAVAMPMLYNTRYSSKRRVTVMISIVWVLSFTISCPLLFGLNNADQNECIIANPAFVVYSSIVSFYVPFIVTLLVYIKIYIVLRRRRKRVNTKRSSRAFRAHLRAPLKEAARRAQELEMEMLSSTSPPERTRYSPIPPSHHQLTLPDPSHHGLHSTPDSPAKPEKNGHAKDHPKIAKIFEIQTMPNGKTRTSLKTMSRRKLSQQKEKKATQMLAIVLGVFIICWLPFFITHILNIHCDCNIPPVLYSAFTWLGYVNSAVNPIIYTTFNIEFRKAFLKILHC
Rat CRF1, sequence (P35353 24-415): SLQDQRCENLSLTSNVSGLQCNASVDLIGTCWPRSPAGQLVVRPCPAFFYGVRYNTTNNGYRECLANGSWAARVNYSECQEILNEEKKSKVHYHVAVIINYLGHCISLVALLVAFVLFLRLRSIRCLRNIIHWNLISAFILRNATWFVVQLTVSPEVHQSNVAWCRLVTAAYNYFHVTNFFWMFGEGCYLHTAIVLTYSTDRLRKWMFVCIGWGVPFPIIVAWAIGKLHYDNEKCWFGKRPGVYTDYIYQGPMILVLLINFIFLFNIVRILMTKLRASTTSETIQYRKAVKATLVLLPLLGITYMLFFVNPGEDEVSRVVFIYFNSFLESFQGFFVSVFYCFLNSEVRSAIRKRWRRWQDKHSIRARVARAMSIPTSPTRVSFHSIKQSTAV
Rat α7 nAChR (α-BGTX-sensitive), sequence (Q05941 23-502): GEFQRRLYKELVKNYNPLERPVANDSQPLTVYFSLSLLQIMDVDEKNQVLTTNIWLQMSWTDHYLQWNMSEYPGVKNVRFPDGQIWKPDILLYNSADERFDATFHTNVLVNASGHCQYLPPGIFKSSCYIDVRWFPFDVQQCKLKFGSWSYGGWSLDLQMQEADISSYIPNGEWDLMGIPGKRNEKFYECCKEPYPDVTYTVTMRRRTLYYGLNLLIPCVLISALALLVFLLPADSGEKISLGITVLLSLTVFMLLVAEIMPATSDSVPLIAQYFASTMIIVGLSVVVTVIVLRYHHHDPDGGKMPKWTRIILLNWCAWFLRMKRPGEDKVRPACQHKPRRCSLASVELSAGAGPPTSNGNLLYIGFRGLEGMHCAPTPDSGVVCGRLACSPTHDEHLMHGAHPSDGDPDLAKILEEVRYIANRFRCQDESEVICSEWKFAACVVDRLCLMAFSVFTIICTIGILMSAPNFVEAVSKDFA
Human ETB, sequence (P24530 27-442): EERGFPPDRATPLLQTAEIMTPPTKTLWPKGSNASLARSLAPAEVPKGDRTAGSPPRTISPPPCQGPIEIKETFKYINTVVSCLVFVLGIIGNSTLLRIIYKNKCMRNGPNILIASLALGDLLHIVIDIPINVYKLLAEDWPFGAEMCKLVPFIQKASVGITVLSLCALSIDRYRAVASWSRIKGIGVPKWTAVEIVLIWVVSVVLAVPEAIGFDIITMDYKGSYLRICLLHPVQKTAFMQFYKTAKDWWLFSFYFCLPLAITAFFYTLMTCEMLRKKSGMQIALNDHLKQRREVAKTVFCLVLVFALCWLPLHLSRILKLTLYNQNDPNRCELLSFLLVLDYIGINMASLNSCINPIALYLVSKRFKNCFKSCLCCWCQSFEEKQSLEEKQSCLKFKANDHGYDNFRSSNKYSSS
Human D1, sequence (P21728 whole entry): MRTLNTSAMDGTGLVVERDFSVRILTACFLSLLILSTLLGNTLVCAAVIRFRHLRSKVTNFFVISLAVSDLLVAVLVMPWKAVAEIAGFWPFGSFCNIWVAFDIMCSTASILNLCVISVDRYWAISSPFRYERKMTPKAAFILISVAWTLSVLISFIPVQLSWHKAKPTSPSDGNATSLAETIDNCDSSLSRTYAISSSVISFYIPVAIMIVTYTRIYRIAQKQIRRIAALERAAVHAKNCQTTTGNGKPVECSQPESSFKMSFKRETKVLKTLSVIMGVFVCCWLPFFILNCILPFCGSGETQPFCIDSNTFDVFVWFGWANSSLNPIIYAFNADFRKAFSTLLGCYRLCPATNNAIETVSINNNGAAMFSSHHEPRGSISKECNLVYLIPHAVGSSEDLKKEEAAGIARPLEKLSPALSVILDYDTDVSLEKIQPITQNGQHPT
Guinea pig H2, sequence (P47747 whole entry): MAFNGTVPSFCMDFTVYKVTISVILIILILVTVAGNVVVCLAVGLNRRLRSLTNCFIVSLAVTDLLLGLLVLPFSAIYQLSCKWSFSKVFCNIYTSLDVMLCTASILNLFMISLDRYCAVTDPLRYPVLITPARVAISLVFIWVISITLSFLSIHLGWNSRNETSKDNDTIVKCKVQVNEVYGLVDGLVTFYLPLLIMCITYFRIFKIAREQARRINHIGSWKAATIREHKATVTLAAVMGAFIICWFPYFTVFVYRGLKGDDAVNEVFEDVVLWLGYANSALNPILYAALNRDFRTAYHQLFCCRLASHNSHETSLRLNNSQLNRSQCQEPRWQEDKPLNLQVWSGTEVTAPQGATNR
Human M5, sequence (P08912 whole entry): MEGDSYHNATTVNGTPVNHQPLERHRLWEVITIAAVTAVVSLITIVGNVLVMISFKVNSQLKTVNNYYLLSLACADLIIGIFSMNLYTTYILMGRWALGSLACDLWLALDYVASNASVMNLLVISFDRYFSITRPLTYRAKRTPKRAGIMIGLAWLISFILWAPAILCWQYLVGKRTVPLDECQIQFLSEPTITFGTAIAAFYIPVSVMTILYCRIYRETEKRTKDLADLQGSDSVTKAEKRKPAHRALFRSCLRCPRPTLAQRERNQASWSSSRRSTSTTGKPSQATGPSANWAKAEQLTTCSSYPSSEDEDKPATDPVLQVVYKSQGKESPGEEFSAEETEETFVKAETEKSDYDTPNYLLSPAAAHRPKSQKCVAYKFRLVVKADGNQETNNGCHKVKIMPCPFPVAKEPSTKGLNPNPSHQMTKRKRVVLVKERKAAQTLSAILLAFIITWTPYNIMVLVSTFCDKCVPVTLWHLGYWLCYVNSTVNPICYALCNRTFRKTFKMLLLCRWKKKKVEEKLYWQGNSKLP
Human 5-HT5a, sequence (P47898 whole entry): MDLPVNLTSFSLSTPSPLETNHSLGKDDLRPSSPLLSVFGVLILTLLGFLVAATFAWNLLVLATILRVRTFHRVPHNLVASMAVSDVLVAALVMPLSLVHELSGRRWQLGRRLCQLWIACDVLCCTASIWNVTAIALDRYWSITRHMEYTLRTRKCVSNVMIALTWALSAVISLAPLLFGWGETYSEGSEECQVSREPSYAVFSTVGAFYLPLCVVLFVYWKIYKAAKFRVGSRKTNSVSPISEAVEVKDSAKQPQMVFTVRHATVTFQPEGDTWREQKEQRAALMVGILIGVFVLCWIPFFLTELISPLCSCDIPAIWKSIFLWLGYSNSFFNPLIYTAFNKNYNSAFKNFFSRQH

SMILES: COC(=O)N1CCC(CN2CCC(CNC(=O)c3cccc4[nH]c(C(C)C)nc34)CC2)CC1 [TD-8954, 4-(4-{[(2-isopropyl-1H-benzoimidazole-4-carbonyl)amino]methyl}-piperidin-1-ylmethyl)piperidine-1-carboxylic acid methyl ester]
- Ki (Human ETB): > 1000 nM
- inhibition at 1 µM (Human ETB; [4]): 5%
- Ki (Human 5-HT7): > 1000 nM
- pKi (Rat GABA (non-selective)): <6
- % Inhibition of specific binding (1 μM) (Rat GABA (non-selective); TD-8954 1 μM): −6%
- Ki (Human M1): > 1000 nM
- IC50 (Human COX1): > 1000 nM
- inhibition at 1 µM (Human COX1; read-out: % Inhibition of control (1 μM)): 2%
- Ki (Guinea pig H1): > 1000 nM
- Ki (Human 5-HT2A): > 1000 nM
- Ki (Rat dopamine transporter): > 1000 nM
- inhibition at 1 µM (Rat dopamine transporter; [4]): 3%
- Ki (Human NK2): > 1000 nM
- Ki (Human Y1): > 1000 nM
- Ki (Rat CRF1): > 1000 nM
- inhibition at 1 µM (Rat CRF1; [4]): -6%
- Ki [1]: > 1000 nM
- inhibition at 1 µM [1, 4]: 3%
- Ki (Human 5-HT5a): > 1000 nM
- Ki (Human 5-HT transporter): > 1000 nM
- Ki (Bovine 5-HT1D): > 1000 nM
- % Inhibition of control (1 μM) (Human PDE4): −19%
- Ki (Human V2): > 1000 nM
- Ki (Human M5): > 10000 nM
- inhibition at 1 µM (Rat NMDA): -6%
- Ki (Guinea pig H2): > 1000 nM
- inhibition at 1 µM (Guinea pig H2; [4]): 4%
- pKi [2]: <6
- Ki (Guinea pig κ kappa): > 1000 nM
- inhibition at 1 µM (Guinea pig κ kappa; [4]): 22%
- Ki (Human CB1): > 1000 nM
- Ki (Human β2): > 1000 nM
- free plasma AUC0–24 [3]: 36.2 nM/h
- free plasma Cmax [3]: 3.4 nM/h
- effect on magnitude of inward human Nav1.5 sodium current (human Nav1.5): no effect
- Ki (Human CGRP): > 1000 nM
- Ki (Human D1): > 1000 nM
- inhibition at 1 µM (Human D1; [4]): -2%
- Ki (Human D2S): > 1000 nM
- inhibition at 1 µM (Human D2S; [4]): 6%
- Ki (Rat 5-HT1B): > 1000 nM
- Ki (Human δ2): > 1000 nM
- Ki (Rat Ca2+ channel (N)): > 1000 nM
- % Inhibition of control (1 μM) (Rat adenylyl cyclase): 5%
- Ki (Human μ): > 1000 nM
